Data: US20100189811A1, “Biocide compositions comprising 3-methylisothiazolin-3-one and a haloalkyl sulphone” (THOR GmbH, priority 2009, published 2010)

How the values were obtained:
[1] = tested on: Aspergillus niger (ATCC16404); test: Minimum inhibitory concentration and synergy index in Sabouraud glucose agar, visual test for growth; type: cell-based; conditions: 72 hours at 25° C.; for Synergy index Qa/QA + Qb/QB: method of Kull et al.
Protocol: (§1) The synergism of a combination of MIT with diiodomethyl p-tolyl sulphone was tested. Test organisms used were the Gram-negative bacterium Pseudomonas aeruginosa (ATCC 9027) and the mould Aspergillus niger (ATCC16404). For the purpose of the test, mixtures containing different concentrations of MIT and diiodomethyl p-tolyl sulphone were prepared and tested for their action on Pseudomonas aeruginosa and Aspergillus niger respectively. The active compound mixtures in the corresponding concentrations were introduced into selective nutrient media (nutrient agar for Pseudomonas aeruginosa and Sabouraud glucose agar for Aspergillus niger) and the test organisms were likewise incorporated into the agar. The cell density in the agar was in each case 10^6 microbes per ml in the case of Pseudomonas aeruginosa and 10^5 spores per ml in for Aspergillus niger.
(§2) The incubation time is 48 hours (bacteria) or 72 hours (moulds) at 30° C. and 25° C. respectively. This was followed by visual testing for growth of Pseudomonas aeruginosa and Aspergillus niger. In the case of Pseudomonas aeruginosa, growth was apparent by hazing or greenish coloration of the nutrient medium, or by formation of colonies on the surface of the agar. In the case of Aspergillus niger, the growth was apparent through the formation of colonies or mycelia on the surface of the agar. In this way the minimum inhibitory concentrations (MICs) of the two active compounds were determined, individually and in combination. The MIC is the concentration at which there is no longer any hazing, colouring of the agar or colony formation on the surface of the agar (Pseudomonas aeruginosa) and no formation of colonies or mycelia on the surface of the agar (Aspergillus niger).
(§3) The synergism that occurred was presented numerically by calculation of the synergy index (SI). This calculation was made using the common method of F. C. Kull et al., Applied Microbiology, vol. 9 (1961), p. 538. SI is calculated there in accordance with the following formula:
(§4) Synergy index SI=Qa/QA+Qb/QB
(§5) In the application of this formula to the MIT+DIMTS biocide system tested here, the variables in the formula have the following definition:
(§6) Qa=concentration of MIT in the mixture of diiodomethyl p-tolyl sulphone+MIT QA=concentration of MIT as sole biocide Qb=concentration of diiodomethyl p-tolyl sulphone in the biocide mixture QB=concentration of diiodomethyl p-tolyl sulphone as sole biocide
(§7) If the synergy index has a value of more than 1, this means that there is an antagonism.
(§8) If the synergy index adopts a value of 1, this means that the action of the two biocides is additive. If the synergy index takes on a value of below 1, this means that there is synergism of the two biocides.

[2] = tested on: Pseudomonas aeruginosa (ATCC 9027); test: Minimum inhibitory concentration and synergy index in nutrient agar, visual test for growth; type: cell-based; conditions: 48 hours at 30° C.; for Synergy index Qa/QA + Qb/QB: method of Kull et al.
Protocol: as §1, §2, §3, §4, §5, §6, §7, §8

[3] = concentration of DIMTS (sole or in the mixture) that shows an endpoint
[4] = concentration of MIT (sole or in the mixture) which shows an endpoint

SMILES | Synergy index Qa/QA + Qb/QB [1] | MHK Qb (DIMTS) [1, 3] | Synergy index Qa/QA + Qb/QB [2] | MHK Qb (DIMTS) [2, 3] | MHK Qa (MIT) [1, 4] | MHK Qa (MIT) [2, 4]
Cc1ccc(S(=O)(=O)C(I)I)cc1 [DIMTS, diiodomethyl p-tolyl sulphone] | 1.00 | 10 ppm | 1.00 | 1250 ppm | – | –
Cn1sccc1=O [MIT, 2-methylisothiazolin-3-one] | 1.00 | – | 1.00 | – | 800 ppm | 40 ppm
